{"source": "patent US20150306107A1", "about": "“SAA Derivative Compound Restores eNOS And Inhibits Oxidative Stress-Induced A Diseases In Hypoxia” (JANSFAT BIOTECHNOLOGY CO., LTD., priority 2014, published 2015)", "key": {"NOx in lung tissue": {"system": "NOx in lung tissue", "conditions": "21 days of hypoxia; control group 100%, hypoxia 59.8±3.7%", "procedure": "All the rats were maintained on a 12-h light/12-hr dark cycle at 25±1° C. and were provided with food and water ad libitum. The normoxia group was housed in standard normoxic conditions and the other three treated groups were continuously housed in a hypoxic chamber (10% O2) for 21 days, except for a 30-min interval each day when the chamber was cleaned (FIG. 2). During which, a normoxic gas mixture was prepared from compressed air.\nProduction of NO, represented by its metabolite nitrate+nitrite (NOx), in lung tissue extracts was determined using the Griess method (Chung H H et al, Br J Pharmacol 160: 971, 2010; Vascular Pharmacology 53: 239, 2010). The three step Greiss test converts nitrate (NO3^−) into nitrite (NO2^−), resulting in a total NO2^− concentration from a standard calibration curve. The lung tissue extracts were homogenized, washed with PBS and incubated in a lysis buffer in addition to a protease inhibitor cocktail (Sigma, St. Louis, Mo.) to obtain the extracts of lung proteins. […] The samples were then incubated (25° C, 10 min) with Griess reagent [N-(1-naphthyl)-ethylenediamine: 0.2% (w/v), sulphanilamide: 2% (w/v), solubilized in double-distilled water: 95% and phosphoric acid: 5% (v/v)] and the absorbance measured at 540 nm. […]"}, "VEGF [1]": {"system": "VEGF", "assay": "Western blotting of VEGF in lung tissue after long-term hypoxia", "assay_type": "in vivo, rat", "conditions": "hypoxia 21 days; hypoxia 168.9±24.6%"}, "eNOS": {"system": "eNOS", "assay": "Immunohistochemistry of eNOS in pulmonary artery wall after long-term hypoxia", "assay_type": "in vivo, rat", "experimental": "(§1) For histological analysis, the rat pulmonary right lung sections or pulmonary artery were fixed in 4% formaldehyde for 1 hour at 4° C. After washing with phosphate buffer saline (PBS), they were sent for paraffin-embedded serial-sections. Serial cross-sections 7 μm thick were obtained from the cross-section of each pulmonary artery. Tissue sections were deparaffinized and rehydrated in an ethanol series. After tissue rehydration, endogenous peroxidase activity was quenched with 3% hydrogen peroxide for 30 minutes, and the sections were gently washed in PBS. Non-specific binding was blocked by incubation with 1% nonimmune bovine serum albumin (BSA) in PBS for 30 minutes at room temperature.\n(§2) The tissue sections were incubated for 1 hour at room temperature with antibody against VEGF (ab1442, Millipore) or against eNOS (ab5589, Abcam) diluted 1:200 in PBS with 1% BSA. After being washed with PBS, the sections were incubated for 1 hour at room temperature with biotinylated goat antibody against rabbit (Dako, E-0432) and diluted 1:200 in PBS for 30 minutes at room temperature. The reaction was visualized by the addition of 3-3-diaminobenzidine (DAB) in a working solution of DAB substrate kit for peroxidase (vector lab, SK-4100) at room temperature for 5 minutes. The sections were washed in PBS for 10 minutes between each step, and counterstained with haematoxylin. […]"}, "VEGF [2]": {"system": "VEGF", "assay": "Immunohistochemistry of VEGF in pulmonary artery wall after long-term hypoxia", "assay_type": "in vivo, rat", "experimental": "as §1, §2"}}, "data": [{"smiles": "Cn1c(=O)c2c(ncn2CCN2CCN(c3ccccc3Cl)CC2)n(C)c1=O.O=C1O[C@H]([C@@H](O)CO)C(O)=C1O", "note": "[SPAAX-1 ascorbate complex, 7-[2-[4-(2-chlorobenzene)piperazinyl]ethyl]-1,3-dimethylxanthine.ascorbic acid]", "values": [{"measurement": "levels of NOx in lung tissue", "setting": "NOx in lung tissue", "result": "86.3±17.3", "unit": "%"}, {"measurement": "VEGF expression in lung tissue", "setting": "VEGF [1]", "result": "120.9±22.2", "unit": "%"}, {"measurement": "eNOS immunostaining reactivity of pulmonary artery", "setting": "eNOS", "result": "restored the decay of eNOS"}, {"measurement": "VEGF immunostaining reactivity of pulmonary artery", "setting": "VEGF [2]", "result": "reduced"}]}]}
